In patent US20080112933A1 (priority 2004, published 2008):

Tests used:
[1] = tested on: bone marrow MNCs; assay: Long-term culture-initiating cell (LTC-IC) assay of treated bone marrow MNCs; conditions: treated bone marrow mononuclear cells; FIG. 4; taken as showing no myelotoxicity
[2] = target: Gαs (Mus musculus, UniProt P63094); assay: Gαs activity measured by cAMP production in bone marrow mononuclear cells; conditions: bone marrow mononuclear cells treated with the agent; FIG. 3
[3] = tested on: bone marrow MNCs; assay: Competitive repopulation assay with treated bone marrow MNCs; format: in vivo, mouse; conditions: treated CD45.1 BM MNCs injected with equal number of CD45.2 BM MNCs into lethally irradiated CD45.2 mice; flow cytometry eight weeks after injection; FIG. 8
Protocol: In these experiments CD45.1 cells were either treated with suramin or untreated. They were then injected with an equal number of CD45.2 whole BM MNCs into lethally irradiated CD45.2 mice. Eight weeks following injection the contribution to bone marrow hematopoiesis of the untreated or treated cells was analyzed by flow cytometry.

[4] = tested on: bone marrow mononuclear cells; assay: CFU-C assay of treated bone marrow mononuclear cells; conditions: taken as showing no myelotoxicity
[5] = tested on: hematopoietic progenitor cells; conditions: mouse, in vivo
[6] = tested on: hematopoietic progenitor cells; conditions: mouse, in vivo; remark: listed apart in the source

Chain of Gαs (P63094 whole entry): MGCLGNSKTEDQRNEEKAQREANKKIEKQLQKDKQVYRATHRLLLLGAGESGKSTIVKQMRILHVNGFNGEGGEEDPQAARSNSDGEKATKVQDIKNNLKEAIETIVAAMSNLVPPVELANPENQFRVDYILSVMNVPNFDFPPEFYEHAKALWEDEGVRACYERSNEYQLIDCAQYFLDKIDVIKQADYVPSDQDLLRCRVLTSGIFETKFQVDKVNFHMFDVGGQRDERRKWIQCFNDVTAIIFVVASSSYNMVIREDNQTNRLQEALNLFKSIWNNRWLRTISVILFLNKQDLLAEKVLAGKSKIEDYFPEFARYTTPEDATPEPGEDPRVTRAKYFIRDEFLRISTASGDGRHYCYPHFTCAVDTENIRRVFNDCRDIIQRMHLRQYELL

| Compound | ability of the cells to perform in LTC-IC assay [1] | cAMP production (indicative of Gαs signaling) [2] | ability to engraft and establish hematopoiesis in the bone marrow [3] | ability of the cells to perform in CFU-C assay [4] | increase in the number of cells homing to the bone marrow [5] | engraftment potential: contribution in competitive transplants [6] |
| --- | --- | --- | --- | --- | --- | --- |
| Cc1ccc(C(=O)Nc2ccc(S(=O)(=O)O)c3cc(S(=O)(=O)O)cc(S(=O)(=O)O)c23)cc1NC(=O)c1cccc(NC(=O)Nc2cccc(C(=O)Nc3cc(C(=O)Nc4ccc(S(=O)(=O)O)c5cc(S(=O)(=O)O)cc(S(=O)(=O)O)c45)ccc3C)c2)c1 [suramin] | did not result in any impairment | reduction in the cAMP production | reduction in their ability to engraft and establish hematopoiesis in the bone marrow | did not result in any impairment | – | – |
| cholera toxin | – | – | – | – | ~75% | enhanced contribution in competitive transplants |
